Legend:
[1] = target: Lysine-specific demethylase 5B (Homo sapiens, UniProt Q9UGL1); test: Enzymatic Assay: The ability of test compounds to inhibit the activity of Jarid1B was determined in 384-well plate format under the following reaction conditions: 0.8 nM Jarid1B, 300 nM H3K4me3-biotin labeled peptide (Anaspec cat #64357), 2 μM alpha-ketoglutaric acid in assay buffer of 50 mM HEPES, pH7.3, 0.005% Brij35, 0.5 mM TCEP, 0.2 mg/ml BSA, 50 μM sodium L-ascorbate, and 2 μM ammonium iron(II) sulfate. Reaction product was determined quantitatively by TR-FRET after the addition of detection reagent Phycolink Streptavidin-allophycocyanin (Prozyme) and Europium-anti-mono- or di-methylated histone H3 lysine 4 (H3K4me1-2) antibody (PerkinElmer) in the presence of 5 mM EDTA in LANCE detection buffer (PerkinElmer) at a final concentration of 25 nM and 1 nM, respectively.The assay reaction was initiated by the following: 2 μl of the mixture of 900 nM H3K4me3-biotin labeled peptide and 6 μM alpha-ketoglutaric acid with 2 μl of 11-point serial diluted inhibitor in 3% DMSO was added to each well of the plate, followed by the addition of 2 μl of 2.4 nM Jarid1B to initiate the reaction. The reaction mixture was incubated at room temperature for 30 minutes, and terminated by the addition of 6 μl of 5 mM EDTA in LANCE detection buffer containing 50 nM Phycolink Streptavidin-allophycocyanin and 2 nM Europium-anti-H3K4me1-2 antibody.
Lysine-specific demethylase 5B, sequence (Q9UGL1 whole entry): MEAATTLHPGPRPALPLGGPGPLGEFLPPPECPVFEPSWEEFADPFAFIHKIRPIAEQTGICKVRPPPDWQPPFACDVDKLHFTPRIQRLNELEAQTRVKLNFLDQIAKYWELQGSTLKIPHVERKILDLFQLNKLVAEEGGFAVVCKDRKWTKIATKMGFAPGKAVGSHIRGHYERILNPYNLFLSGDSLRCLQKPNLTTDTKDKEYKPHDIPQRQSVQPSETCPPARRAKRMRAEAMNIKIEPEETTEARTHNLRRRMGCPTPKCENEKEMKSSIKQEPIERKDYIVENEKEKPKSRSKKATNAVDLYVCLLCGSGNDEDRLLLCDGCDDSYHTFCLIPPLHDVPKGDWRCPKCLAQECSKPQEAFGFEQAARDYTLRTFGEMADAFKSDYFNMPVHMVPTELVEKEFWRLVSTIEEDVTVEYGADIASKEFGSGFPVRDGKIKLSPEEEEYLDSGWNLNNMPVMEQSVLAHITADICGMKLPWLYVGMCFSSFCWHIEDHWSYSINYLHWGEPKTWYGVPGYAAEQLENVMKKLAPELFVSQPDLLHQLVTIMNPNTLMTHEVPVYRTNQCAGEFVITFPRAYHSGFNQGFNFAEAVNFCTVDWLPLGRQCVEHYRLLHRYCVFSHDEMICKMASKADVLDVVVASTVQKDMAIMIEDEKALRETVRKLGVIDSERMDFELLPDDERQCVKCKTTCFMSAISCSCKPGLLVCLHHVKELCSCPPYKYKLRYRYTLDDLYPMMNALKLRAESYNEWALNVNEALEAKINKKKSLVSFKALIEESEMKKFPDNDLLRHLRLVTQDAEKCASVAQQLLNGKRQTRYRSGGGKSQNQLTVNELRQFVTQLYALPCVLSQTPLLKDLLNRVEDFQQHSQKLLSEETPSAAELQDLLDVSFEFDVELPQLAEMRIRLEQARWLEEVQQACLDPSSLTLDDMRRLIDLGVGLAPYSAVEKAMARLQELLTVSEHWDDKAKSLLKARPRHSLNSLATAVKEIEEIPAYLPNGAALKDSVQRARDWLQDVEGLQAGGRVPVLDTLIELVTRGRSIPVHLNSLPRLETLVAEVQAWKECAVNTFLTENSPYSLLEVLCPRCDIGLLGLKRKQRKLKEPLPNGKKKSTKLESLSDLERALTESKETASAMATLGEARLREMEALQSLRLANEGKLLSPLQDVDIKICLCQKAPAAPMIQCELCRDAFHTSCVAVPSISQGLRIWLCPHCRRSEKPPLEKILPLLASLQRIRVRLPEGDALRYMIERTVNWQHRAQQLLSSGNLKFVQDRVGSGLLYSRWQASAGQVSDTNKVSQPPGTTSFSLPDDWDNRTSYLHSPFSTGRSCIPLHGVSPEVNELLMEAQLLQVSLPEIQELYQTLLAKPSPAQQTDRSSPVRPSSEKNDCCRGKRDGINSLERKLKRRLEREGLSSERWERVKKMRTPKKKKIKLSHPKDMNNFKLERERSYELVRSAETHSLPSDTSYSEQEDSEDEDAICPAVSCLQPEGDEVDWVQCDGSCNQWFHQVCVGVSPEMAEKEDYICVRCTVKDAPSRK

[2] = target: Lysine-specific demethylase 5A (Homo sapiens, UniProt P29375); test: Enzymatic Assay: The enzymatic assay of Jarid1A activity is based upon Time Resolved-Fluorescence Resonance Energy Transfer (TR-FRET) detection. The ability of test compounds to inhibit the activity of Jarid1A was determined in 384-well plate format under the following reaction conditions: 1 nM Jarid1A, 300 nM H3K4me3-biotin labeled peptide (Anaspec cat #64357), 2 μM alpha-ketoglutaric acid in assay buffer of 50 mM HEPES, pH7.3, 0.005% Brij35, 0.5 mM TCEP, 0.2 mg/ml BSA, 50 μM sodium L-ascorbate, and 2 μM ammonium iron(II) sulfate. Reaction product was determined quantitatively by TR-FRET after the addition of detection reagent Phycolink Streptavidin-allophycocyanin (Prozyme) and Europium-anti-mono- or di-methylated histone H3 lysine 4 (H3K4me1-2) antibody (PerkinElmer) in the presence of 5 mM EDTA in LANCE detection buffer (PerkinElmer) at a final concentration of 25 nM and 1 nM, respectively.The assay reaction was initiated by the following: 2 μl of the mixture of 900 nM H3K4me3-biotin labeled peptide and 6 μM alpha-ketoglutaric acid with 2 μl of 11-point serial diluted inhibitor in 3% DMSO was added to each well of plate, followed by the addition of 2 μl of 3 nM Jarid1A to initiate the reaction.
Lysine-specific demethylase 5A, sequence (P29375 whole entry): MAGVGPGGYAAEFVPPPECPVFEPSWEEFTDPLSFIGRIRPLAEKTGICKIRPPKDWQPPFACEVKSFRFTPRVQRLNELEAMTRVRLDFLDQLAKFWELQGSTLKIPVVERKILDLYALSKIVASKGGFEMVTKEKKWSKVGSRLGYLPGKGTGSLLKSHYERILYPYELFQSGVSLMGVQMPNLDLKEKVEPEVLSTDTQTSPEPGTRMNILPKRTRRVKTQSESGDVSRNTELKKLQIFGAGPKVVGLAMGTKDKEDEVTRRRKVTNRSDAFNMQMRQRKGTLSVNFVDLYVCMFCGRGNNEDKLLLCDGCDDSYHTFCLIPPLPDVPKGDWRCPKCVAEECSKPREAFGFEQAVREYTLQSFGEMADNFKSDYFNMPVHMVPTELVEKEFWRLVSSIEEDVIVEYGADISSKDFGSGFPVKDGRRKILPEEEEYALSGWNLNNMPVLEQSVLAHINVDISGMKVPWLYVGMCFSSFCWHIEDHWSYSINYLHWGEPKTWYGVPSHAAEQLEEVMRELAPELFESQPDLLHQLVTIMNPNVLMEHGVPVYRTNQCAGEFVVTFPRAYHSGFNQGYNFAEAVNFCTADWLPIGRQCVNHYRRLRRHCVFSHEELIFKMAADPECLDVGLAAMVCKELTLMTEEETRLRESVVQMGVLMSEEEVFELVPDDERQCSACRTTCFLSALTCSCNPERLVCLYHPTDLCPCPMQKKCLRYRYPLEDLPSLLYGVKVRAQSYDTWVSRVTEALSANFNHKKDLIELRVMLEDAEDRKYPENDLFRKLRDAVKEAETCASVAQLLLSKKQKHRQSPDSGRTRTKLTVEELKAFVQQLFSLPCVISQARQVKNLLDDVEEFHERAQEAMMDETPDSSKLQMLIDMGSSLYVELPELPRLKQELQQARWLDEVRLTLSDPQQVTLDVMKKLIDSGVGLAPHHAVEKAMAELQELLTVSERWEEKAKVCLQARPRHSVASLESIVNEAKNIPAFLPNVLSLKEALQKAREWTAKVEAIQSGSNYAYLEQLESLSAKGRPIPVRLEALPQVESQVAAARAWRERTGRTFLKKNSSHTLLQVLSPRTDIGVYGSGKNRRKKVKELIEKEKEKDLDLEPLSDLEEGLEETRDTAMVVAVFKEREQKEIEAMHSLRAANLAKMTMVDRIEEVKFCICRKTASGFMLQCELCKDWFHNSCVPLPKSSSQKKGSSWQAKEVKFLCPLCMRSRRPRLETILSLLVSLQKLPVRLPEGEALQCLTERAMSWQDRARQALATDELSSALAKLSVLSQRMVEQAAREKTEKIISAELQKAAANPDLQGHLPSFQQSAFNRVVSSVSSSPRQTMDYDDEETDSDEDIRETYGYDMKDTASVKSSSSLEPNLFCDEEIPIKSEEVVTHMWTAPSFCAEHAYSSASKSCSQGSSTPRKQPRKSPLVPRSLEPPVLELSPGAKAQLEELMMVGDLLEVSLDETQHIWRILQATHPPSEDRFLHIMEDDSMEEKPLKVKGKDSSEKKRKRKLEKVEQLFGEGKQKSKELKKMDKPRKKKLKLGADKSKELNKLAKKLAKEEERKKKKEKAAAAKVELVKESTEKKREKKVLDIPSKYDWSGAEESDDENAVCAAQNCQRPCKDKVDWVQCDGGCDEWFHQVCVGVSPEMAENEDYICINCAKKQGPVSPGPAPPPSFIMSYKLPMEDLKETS

[3] = target: T1, Lysine-specific demethylase 4C (Homo sapiens, UniProt Q9H3R0); test: Enzymatic Assay: The ability of test compounds to inhibit the activity of JMJD2C was determined in 384-well plate format under the following reaction conditions: 0.3 nM JMJD2C, 300 nM H3K9me3-biotin labeled peptide (Anaspec cat #64360), 2 μM alpha-ketoglutaric acid in assay buffer of 50 mM HEPES, pH7.3, 0.005% Brij35, 0.5 mM TCEP, 0.2 mg/ml BSA, 50 μM sodium L-ascorbate, and 2 μM ammonium iron(II) sulfate. Reaction product was determined quantitatively by TR-FRET after the addition of detection reagent Phycolink Streptavidin-allophycocyanin (Prozyme) and Europium-anti-di-methylated histone H3 lysine 9 (H3K9me2) antibody (PerkinElmer) in the presence of 5 mM EDTA in LANCE detection buffer (PerkinElmer) at a final concentration of 50 nM and 1 nM, respectively.The assay reaction was initiated by the following: 2 μl of the mixture of 900 nM H3K9me3-biotin labeled peptide and 6 μM alpha-ketoglutaric acid with 2 μl of 11-point serial diluted inhibitor in 3% DMSO were added to each well of the plate, followed by the addition of 2 μl of 0.9 nM JMJD2C to initiate the reaction. The reaction mixture was incubated at room temperature for 30 minutes, and terminated by the addition of 6 μl of 5 mM EDTA in LANCE detection buffer containing 100 nM Phycolink Streptavidin-allophycocyanin and 2 nM Europium-anti-H3K9me2 antibody. […]
T1 sequence (Q9H3R0 whole entry): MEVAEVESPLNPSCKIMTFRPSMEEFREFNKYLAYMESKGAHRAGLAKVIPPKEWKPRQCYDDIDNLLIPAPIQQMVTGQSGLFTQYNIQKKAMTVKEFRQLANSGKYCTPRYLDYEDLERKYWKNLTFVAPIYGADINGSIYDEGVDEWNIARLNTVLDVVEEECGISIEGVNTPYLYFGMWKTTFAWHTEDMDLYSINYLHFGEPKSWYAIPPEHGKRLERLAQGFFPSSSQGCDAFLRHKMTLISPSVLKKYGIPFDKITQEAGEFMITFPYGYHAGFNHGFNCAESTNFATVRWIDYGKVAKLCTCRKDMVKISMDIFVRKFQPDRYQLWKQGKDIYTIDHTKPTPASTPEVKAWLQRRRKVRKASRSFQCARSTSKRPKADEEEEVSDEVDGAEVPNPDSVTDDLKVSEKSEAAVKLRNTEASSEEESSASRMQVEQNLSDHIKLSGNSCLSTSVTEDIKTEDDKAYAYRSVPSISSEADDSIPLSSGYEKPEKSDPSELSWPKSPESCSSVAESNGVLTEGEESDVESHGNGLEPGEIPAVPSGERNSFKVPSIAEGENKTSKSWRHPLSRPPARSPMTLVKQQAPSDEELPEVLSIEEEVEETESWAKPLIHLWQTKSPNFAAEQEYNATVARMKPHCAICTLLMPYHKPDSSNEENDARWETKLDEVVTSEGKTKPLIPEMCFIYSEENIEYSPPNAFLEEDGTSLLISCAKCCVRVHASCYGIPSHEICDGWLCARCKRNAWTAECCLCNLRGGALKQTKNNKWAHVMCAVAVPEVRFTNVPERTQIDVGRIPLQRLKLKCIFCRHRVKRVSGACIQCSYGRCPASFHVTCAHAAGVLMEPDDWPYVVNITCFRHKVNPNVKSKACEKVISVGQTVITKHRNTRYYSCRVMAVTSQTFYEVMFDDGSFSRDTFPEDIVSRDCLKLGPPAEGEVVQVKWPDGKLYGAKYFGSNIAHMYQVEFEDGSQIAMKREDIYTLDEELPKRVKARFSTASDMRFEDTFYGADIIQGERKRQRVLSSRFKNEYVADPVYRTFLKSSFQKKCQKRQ

Measured: IC50

CC1(C)CCN(C(=O)c2cc3nccc(C(=O)O)c3[nH]2)CC1
< 100 nM: all assays above

From ChEMBL document CHEMBL5726350, “Histone demethylase inhibitors” (2017)
